Source: ChEMBL document CHEMBL3576800, “Discovery of a Potent and Orally Bioavailable Dual Antagonist of CC Chemokine Receptors 2 and 5” (ACS Med Chem Lett, 2015)

Experiments:
Mus musculus = species: Mus musculus; details: in vivo, po, 10 mg/kg, 4 h
Liver microsome = details: rat, microsomes
Description: Drug metabolism in rat liver microsomes

[1] = Clearance in Sprague-Dawley rat at 2.5 mg/kg, iv after 0.25 to 24 hrs by LC/MS/MS method; format: ADME, organism-based; details: in vivo
[2] = Oral bioavailability in Sprague-Dawley rat at 25 mg/kg after 0.25 to 24 hrs by LC/MS/MS method; format: ADME, organism-based; details: in vivo
[3] = AUC in Sprague-Dawley rat at 25 mg/kg, po after 0.25 to 24 hrs by LC/MS/MS method; format: ADME, organism-based; parameters: time upper 24 hr, dose 25 mg/kg, time lower 0.25 hr, route oral; details: in vivo
[4] = Clearance in cynomolgus monkey at 1 mg/kg, iv after 0.25 to 24 hrs by LC/MS/MS method; format: ADME, organism-based, Macaca fascicularis; details: in vivo
[5] = Oral bioavailability in cynomolgus monkey at 1.4 mg/kg after 0.25 to 24 hrs by LC/MS/MS method; format: ADME, organism-based, Macaca fascicularis; details: in vivo
[6] = AUC in cynomolgus monkey at 1.4 mg/kg, po after 0.25 to 24 hrs by LC/MS/MS method; format: ADME, organism-based, Macaca fascicularis; parameters: time 0.25-24 hr, dose 1.4 mg/kg, route oral; details: in vivo

AUC/dose (Mus musculus)	Compound	Drug metabolism (Liver microsome)	further results
1.1 µM·h	CC(C)N(C)[C@@H]1CC[C@H](NC(=O)CNC(=O)c2cccc(C(F)(F)F)c2)[C@H](CS(=O)(=O)c2ccccc2)C1	0.16 nmol/min/mg	–
–	COC[C@@H]1C[C@H](N(C)C(C)C)CC[C@@H]1NC(=O)CNC(=O)c1cccc(C(F)(F)F)c1	0.01 nmol/min/mg	–
–	CCCC[C@@H]1C[C@H](N(C)C(C)C)CC[C@@H]1NC(=O)CNC(=O)c1cccc(C(F)(F)F)c1	0.17 nmol/min/mg	–
–	CC(C)N(C)[C@@H]1CC[C@H](NC(=O)CNC(=O)c2cccc(C(F)(F)F)c2)[C@H](COc2ccccc2)C1	0.29 nmol/min/mg	–
22 µM·h	CCC[C@@H]1C[C@H](N(C)C(C)C)CC[C@@H]1N1CC[C@H](Nc2ncnc3ccc(C(F)(F)F)cc23)C1=O	–	clearance [1]: 40 mL/min/kg; bioavailability [2]: 68%; AUC [3]: 9.29 µM·h; clearance [4]: 25 mL/min/kg; bioavailability [5]: 46%; AUC [6]: 0.862 µM·h
